From patent US9708628B2, “Cationic lipid having improved intracellular kinetics” (NOF CORPORATION, priority 2011, dated 2017)
Entries after “also recorded” stand apart in the source; their conditions may differ.

Assays:
Format in all cases: cell-based
HT1080 cells [1] = assay: Intracellular uptake amount of MEND (NBD-DOPE labeled lipid, FACS); details: NBD-DOPE label, lipid 27.5 nmol/well, 1 hr, DMEM (FBS+)
Protocol: Using B-2 (Example 1), B-2-1 (Comparative Example 1), and DODAP (Comparative Example 2) as cationic lipids, MENDs having a composition of cationic lipid:SOPE:Chol=3:4:3 were prepared by the method described in [Experimental Example 1] (2). For the preparation, PEG2000DSG was used as PEG lipid, and MEND solutions corresponding to 0.55 mM of the lipid concentration were prepared. For cationic MEND, lipids having a composition of DOTAP (Comparative Example 3):DOPE:Chol:=3:4:3 were used, and the cationic MEND was prepared according to the method described in [Experimental Example 1] (3). The lipids of various MENDs were labeled with fluorescence according to the method described in [Experimental Example 1] (5).
(§1) HT1080 cells were plated on a 6-well plate at 2×10^5 cells/2 mL/well 24 hr before, various sample MENDs were diluted with DMEM (FBS+) to a lipid concentration of 27.5 nmol/l mL/well and transfected into the well. After 1 hr, MEND-containing DMEM was removed, and the cells were washed twice with heparin (20 units/mL, 1 mL), and further once with PBS(−) (1 mL). 0.05% Trypsin solution (500 μL) was added, and the mixture was stood in an incubator at 37° C. for 3 min. […] The suspension was passed through a 44 μm nylon mesh immediately before the measurement, and the fluorescence intensity of intracellular NBD was measured.

HT1080 cells [2] = assay: Intracellular kinetics (nuclear transport), confocal microscopy; details: 3 hr after transfection
From the text: For MEND preparation, Rhodamine-labeled pDNA prepared by the method of [Experimental Example 1] (4) was used. For preparation of MEND encapsulating the rhodamine-labeled pDNA, the pDNA solution described in [Experimental Example 1] (1) was completely replaced by rhodamine-labeled pDNA. In addition, the lipid constituting MEND was labeled with fluorescence by the method described in [Experimental Example 1] (3). MENDs having a composition of B-2-4 (Example 4):DOPE:Chol=3:3:4, B-2 (Example 1):SOPE:Chol=5:3:2 were prepared by the method described in [Experimental Example 1] (2). For the preparation, PEG2000-DMG was used as PEG lipid, and MEND solutions corresponding to 0.55 mM of the lipid concentration were prepared.
HT1080 cells were plated on a glass bottom dish at 5×10^4 cells/2 mL/dish 24 hr before. MEND was diluted with DMEM (FBS 10%+) to achieve pDNA 1.6 μg/2 mL and transfected into cells. After 3 hr, hoechst33342 (1 μL) was added and, 10 min later, the cells were washed twice with heparin solution (20 units/mL, 2 mL). Krebs buffer (1 mL) was added, and the image was obtained by a confocal laser scan microscope.

HT1080 cells [3] = assay: Intracellular uptake pathway: influence of sucrose, amiloride, filipin on uptake amount; details: 0.3M sucrose, 1 mM amiloride, 3 hr
Protocol: (§2) MENDs of B-2-4 (Example 4), B-2 (Example 1) were prepared according to [Experimental Example 1] (1), (2), [Experimental Example 18]. For the preparation, PEG2000-DMG was used as PEG lipid, and MEND solutions corresponding to 0.55 mM of the lipid concentration were prepared. pDNA was labeled with fluorescence according to the method described in [Experimental Example 15] (2).
HT1080 cells were plated on a 6-well plate at 2×10^5 cells/2 mL/well 24 hr before. The medium was changed to DMEM (FBS+) containing filipin at a final concentration of […] 30 min before transfection. The medium was changed to DMEM (FBS+) containing a final concentration of 0.3M sucrose, and 1 mM amiloride 15 min before transfection. For transfection, various MENDs were added to the dish at 1.6 μg/2 mL/dish based on the pDNA amount. 3 hr after the transfection, the intracellular pDNA amount was measured by the method described in [Experimental Example 19] (1).

HT1080 cells [4] = assay: Time-course of intracellular uptake amount of MEND (Cy5-labeled pDNA, FACS); details: pDNA 1.6 μg/2 mL/well; 1, 3, 6 hr
Protocol: as §2, with “15].” for “18].”, “prepared. For cationic MEND, lipids having a composition of DOTAP (Comparative Example 3):DOPE:Chol:=3:4:3 were used, and the cationic MEND was prepared according to the method described in [Experimental Example 1] (3).” for “prepared.”
as §1, with “a pDNA” for “a lipid”, “of 1.6 μg/2” for “of 27.5 nmol/l”, “After 1, 3, 6” for “After 1”, “the cells were” for “the mixture was”, “min. DMEM (FBS+) (1 mL) was added and the mixture was centrifuged (700 g, 4° C., 5 min). The supernatant was removed and the cells were suspended in FACS buffer (1 mL).” for “min.”, “intracellular Cy5” for “intracellular NBD”

| SMILES | intracellular uptake amount of MEND (HT1080 cells [1]) | intracellular localization (HT1080 cells [2]) | intracellular uptake with sucrose, amiloride, filipin (HT1080 cells [3]) | intracellular uptake amount (Cy5-labeled pDNA) (HT1080 cells [4]) |
| --- | --- | --- | --- | --- |
| CCCCCCCC/C=C\CCCCCCCC(=O)OCC(CN(C)C)OC(=O)CCCCCCC/C=C\CCCCCCCC (centres unmarked) [DODAP, reference compound] | extremely low as compared to the MENDs using B-2-1 and DOTAP | – | – | – |
| CC1=C(/C=C/C(C)=C/C=C/C(C)=C/C(=O)OCCCN(C)CCSSCCN(C)CCCOC(=O)/C=C(C)/C=C/C=C(C)/C=C/C2=C(C)CCCC2(C)C)C(C)(C)CCC1 [Example B-2-4] | – | accumulate near the nucleus | sucrose- and amiloride-sensitive | low as compared to the MENDs using DOTAP; also recorded: more highly uptaken than B-2 |
| CCCCCCCCCCCCCC(=O)OCCCN(C)CCSSCCN(C)CCCOC(=O)CCCCCCCCCCCCC [Example B-2] | extremely low as compared to the MENDs using B-2-1 and DOTAP | diffused in the cell | sucrose- and amiloride-sensitive | low as compared to the MENDs using DOTAP |
